Test results as given in ChEMBL document CHEMBL1128958, “Synthesis and biological activity of the neuronal calcium channel blocker 2-amino-1-(2,5-dimethoxyphenyl)-5-trifluoromethyl benzimidazole (NS-649)” (Bioorg Med Chem Lett, 1996).

Columns and labels:
[1] = organism: Cavia porcellus; assay: Effect on [Ca2+]-induced contractions in potassium-depolarized guinea pig taenia coli; assay type: functional
[2] = organism: Mus musculus; assay: Concentration that blocked potassium evoked release of [3H]D-aspartate from mouse cerebellar granule neurons; assay type: functional

Question: What does the source list for `COc1ccc(OC)c(-n2c(N)nc3cc(C(F)(F)F)ccc32)c1`?
Answer: Concentration [1]: 30 µM; IC50 [2]: ~2400 nM
